Laboratory results: patent US9023789B2, “Amylin analogs and pharmaceutical compositions thereof” (Novo Nordisk A/S, priority 2012, dated 2015)
Numbered stars: 1 amine (or outer) side, 2 acyl side, 3 side chain; on linkers, the order of the positions; unused ones are H or OH. Bridge positions count the residues as written; N and C are the ends. Side chains are listed from the residue outwards. Peptide text beside a SMILES is read from it. * marks the point of attachment. C20 diacid = O=C(O)CCCCCCCCCCCCCCCCCCC(=O)*; γGlu = O=C(O)[C@H](CCC(=O)[*:2])N[*:1]; AEEA = NCCOCCOCC(=O)O

Assays:
[1] = system: Sprague Dawley (SD) rats; test: ASSAY (I) efficacy testing on appetite (food intake) using an ad libitum fed rat model; assay type: in vivo; settings: rat, 30 nmol/kg
Procedure, shortened: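 Ad libitum fed SD rats (200–250 g) were housed singly on a reversed light/dark cycle and given one 0.01–3 mg/kg dose ip, po or sc just before lights-off, with 5–8 per dose group plus vehicle controls. Food intake was recorded hourly for 7 h, then at 24 h and sometimes 48 h; Grubbs outliers were excluded.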

[2] = ASSAY (III) ThT fibrillation assay for physical stability; assay type: physicochemical
Procedure, shortened: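 Formulations with 1 μM ThT, pH adjusted as required, incubated at 37 °C with 960 rpm orbital shaking; fluorescence (ex 444/em 485 nm) read every 20 min. Fibrillation reported as mean ThT fluorescence ± SD of 4–8 replicates at time points; polypeptide concentration measured by reverse-phase HPLC before and after, post-centrifugation.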

[3] = target: T1, human calcitonin receptor (Homo sapiens, UniProt P30988); test: ASSAY (VII) binding to the human calcitonin receptor (SPA, 125I-Calcitonin); settings: read-out: hCTR bind IC50;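 further: cell membranes (35 ng/µL) combined with SPA beads in 40 µL of pH 7.4 Hepes buffer, 384-well format, signal counted on a TopCounter instrument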
T1 construct: expressed in transfected cells
T1 sequence (P30988 25-474): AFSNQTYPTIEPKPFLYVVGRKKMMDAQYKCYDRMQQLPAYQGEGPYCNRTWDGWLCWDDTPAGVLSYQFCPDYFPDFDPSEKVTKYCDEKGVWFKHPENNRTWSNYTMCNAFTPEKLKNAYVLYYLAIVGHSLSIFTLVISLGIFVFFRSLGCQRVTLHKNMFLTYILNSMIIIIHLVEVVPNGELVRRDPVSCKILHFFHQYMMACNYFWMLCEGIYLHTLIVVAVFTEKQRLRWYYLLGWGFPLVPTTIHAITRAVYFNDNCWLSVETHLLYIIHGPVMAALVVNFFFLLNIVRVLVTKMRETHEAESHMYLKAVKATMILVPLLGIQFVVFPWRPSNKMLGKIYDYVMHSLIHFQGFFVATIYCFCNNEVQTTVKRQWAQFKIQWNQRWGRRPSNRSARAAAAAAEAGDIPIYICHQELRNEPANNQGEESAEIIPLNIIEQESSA

ThT pH 4.0 lag time (h) [2] [h]	IC50 [3] [nM]	Structure (SMILES)	Food intake reduction 0-24 h 30 nmol/kg (%) [1] [%]	Food intake reduction 24-48 h 30 nmol/kg (%) [1] [%]
28	19.8	CC[C@H](C)[C@H](NC(=O)[C@H](C)NC(=O)CNC(=O)[C@H](Cc1ccccc1)NC(=O)[C@H](CC(N)=O)NC(=O)[C@@H]1CCCN1C(=O)[C@H](CO)NC(=O)[C@H](CO)NC(=O)[C@H](Cc1c[nH]cn1)NC(=O)[C@H](CCCNC(=N)N)NC(=O)[C@H](CC(C)C)NC(=O)[C@H](Cc1ccccc1)NC(=O)[C@H](Cc1c[nH]cn1)NC(=O)[C@H](C)NC(=O)[C@H](CC(C)C)NC(=O)[C@H](CCCNC(=N)N)NC(=O)[C@H](CCC(N)=O)NC(=O)[C@@H](NC(=O)[C@H](C)NC(=O)[C@@H]1CSSC[C@H](NC(=O)[C@@H](N)CCCCNC(=O)COCCOCCNC(=O)CC[C@H](NC(=O)CCCCCCCCCCCCCCCCCCC(=O)O)C(=O)O)C(=O)N[C@@H](CC(N)=O)C(=O)N[C@@H]([C@@H](C)O)C(=O)N[C@@H](C)C(=O)N[C@@H]([C@@H](C)O)C(=O)N1)[C@@H](C)O)C(=O)N1CCC[C@H]1C(=O)N[C@@H](CO)C(=O)N[C@@H](CO)C(=O)N[C@H](C(=O)N[C@@H](CC(N)=O)C(=O)N[C@H](C(=O)NCC(=O)N[C@@H](Cc1c[nH]cn1)C(=O)N[C@@H](CC(N)=O)C(=O)N[C@H](C(=O)N[C@@H](Cc1ccc(O)cc1)C(N)=O)[C@@H](C)O)C(C)C)[C@@H](C)O [Example 80] (H-K([AEEA-γGlu-C20 diacid])CNTATCATQRLAHFLRHSSPNFGAIPSSTNVGHNTY-NH2; disulfide 2-7; N-terminus assumed)	46	9
17	17.5	CC[C@H](C)[C@H](NC(=O)[C@H](C)NC(=O)CNC(=O)[C@H](Cc1ccccc1)NC(=O)[C@H](CC(N)=O)NC(=O)[C@@H]1CCCN1C(=O)[C@H](CO)NC(=O)[C@H](CO)NC(=O)[C@H](Cc1c[nH]cn1)NC(=O)[C@H](CCCNC(=N)N)NC(=O)[C@H](CC(C)C)NC(=O)[C@H](Cc1ccccc1)NC(=O)[C@H](CCC(=O)O)NC(=O)[C@H](C)NC(=O)[C@H](CC(C)C)NC(=O)[C@H](CCCNC(=N)N)NC(=O)[C@H](CCC(N)=O)NC(=O)[C@@H](NC(=O)[C@H](C)NC(=O)[C@@H]1CSSC[C@H](NC(=O)[C@@H](N)CCCCNC(=O)CC[C@H](NC(=O)CC[C@H](NC(=O)CCCCCCCCCCCCCCCCCCC(=O)O)C(=O)O)C(=O)O)C(=O)N[C@@H](CC(N)=O)C(=O)N[C@@H]([C@@H](C)O)C(=O)N[C@@H](C)C(=O)N[C@@H]([C@@H](C)O)C(=O)N1)[C@@H](C)O)C(=O)N1CCC[C@H]1C(=O)N[C@@H](CO)C(=O)N[C@@H](CO)C(=O)N[C@H](C(=O)N[C@@H](CC(N)=O)C(=O)N[C@H](C(=O)NCC(=O)N1CCC[C@H]1C(=O)N[C@@H](CCCNC(=N)N)C(=O)N[C@H](C(=O)N[C@@H](Cc1ccc(O)cc1)C(N)=O)[C@@H](C)O)C(C)C)[C@@H](C)O [Example 110] (H-K([γGlu-γGlu-C20 diacid])CNTATCATQRLAEFLRHSSPNFGAIPSSTNVGPRTY-NH2; disulfide 2-7)	68	31
45	15.3	CC[C@H](C)[C@H](NC(=O)[C@H](C)NC(=O)CNC(=O)[C@H](Cc1ccccc1)NC(=O)[C@H](CC(N)=O)NC(=O)[C@@H]1CCCN1C(=O)[C@H](CO)NC(=O)[C@H](CO)NC(=O)[C@H](Cc1c[nH]cn1)NC(=O)[C@H](CCCNC(=N)N)NC(=O)[C@H](CC(C)C)NC(=O)[C@H](Cc1ccccc1)NC(=O)[C@H](CC(N)=O)NC(=O)[C@H](C)NC(=O)[C@H](CC(C)C)NC(=O)[C@H](CCCNC(=N)N)NC(=O)[C@H](CCC(N)=O)NC(=O)[C@@H](NC(=O)[C@H](C)NC(=O)[C@@H]1CSSC[C@H](NC(=O)[C@@H](N)CCCCNC(=O)COCCOCCNC(=O)CC[C@H](NC(=O)CCCCCCCCCCCCCCCCCCC(=O)O)C(=O)O)C(=O)N[C@@H](CC(N)=O)C(=O)N[C@@H]([C@@H](C)O)C(=O)N[C@@H](C)C(=O)N[C@@H]([C@@H](C)O)C(=O)N1)[C@@H](C)O)C(=O)N1CCC[C@H]1C(=O)N[C@@H](CO)C(=O)N[C@@H](CO)C(=O)N[C@H](C(=O)N1CCC[C@H]1C(=O)N[C@H](C(=O)NCC(=O)N[C@@H](CO)C(=O)N[C@@H](Cc1c[nH]cn1)C(=O)N[C@H](C(=O)N[C@@H](Cc1ccc(O)cc1)C(N)=O)[C@@H](C)O)C(C)C)[C@@H](C)O [Example 57] (H-K([AEEA-γGlu-C20 diacid])CNTATCATQRLANFLRHSSPNFGAIPSSTPVGSHTY-NH2; disulfide 2-7; N-terminus assumed)	62	16
